Test results reported in PubChem BioAssay AID248 (DTP/NCI, 2004).
“And” between values parts separate entries of the source, which are not always exact repeats. Equal entries are not always repeated. Toxic doses and inconclusive results are not listed. Cut-off read from the data, not from the text of the source: active = T/C of 150% or more; inactive = T/C below 125%.

Test system: L1210 leukemia ip in BDF1 mice, survival T/C
Test: NCI In Vivo Anticancer Drug Screen. Data for tumor model L1210 Leukemia (intraperitoneal) in B6D2F1 (BDF1) mice
Settings: endpoint: mean survival time, higher = longer survival
Method in brief: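 Transplanted-tumor mice were given test agent; controls received vehicle only. Survival readings from the two groups were divided (treated over control).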

[1] = dose: 25.0 mg/kg/injection, schedule: Q01DX009 (ip), vehicle: saline with Tween-80
[2] = dose: 50.0 mg/kg/injection, schedule: Q01DX009 (ip), vehicle: saline with Tween-80
[3] = dose: 200.0 mg/kg/injection, schedule: Q01DX009 (ip), vehicle: saline with Tween-80
[4] = dose: 100.0 mg/kg/injection, schedule: Q04DX003 (ip), vehicle: saline
[5] = dose: 200.0 mg/kg/injection, schedule: Q04DX003 (ip), vehicle: saline
[6] = dose: 400.0 mg/kg/injection, schedule: Q04DX003 (ip), vehicle: saline
[7] = dose: 100.0 mg/kg/injection, schedule: Q01DX009 (ip), vehicle: saline with Tween-80
[8] = dose: 100.0 mg/kg/injection, schedule: Q04DX003 (ip), vehicle: saline with Tween-80
[9] = dose: 200.0 mg/kg/injection, schedule: Q04DX003 (ip), vehicle: saline with Tween-80
[10] = dose: 400.0 mg/kg/injection, schedule: Q01DX009 (ip), vehicle: saline with Tween-80
[11] = dose: 400.0 mg/kg/injection, schedule: Q04DX003 (ip), vehicle: saline with Tween-80
[12] = dose: 100.0 mg/kg/injection, schedule: Q01DX001 (ip), vehicle: saline
[13] = dose: 200.0 mg/kg/injection, schedule: Q01DX001 (ip), vehicle: saline
[14] = dose: 400.0 mg/kg/injection, schedule: Q01DX001 (ip), vehicle: saline
[15] = dose: 100.0 mg/kg/injection, schedule: Q01DX009 (ip), vehicle: saline
[16] = dose: 200.0 mg/kg/injection, schedule: Q01DX009 (ip), vehicle: saline
[17] = dose: 400.0 mg/kg/injection, schedule: Q01DX009 (ip), vehicle: saline

Measured: T/C

CC(O)(C(=O)O)c1ccc(Cl)c(Cl)c1 (stereo not drawn)
inactive: dose: 12.5 mg/kg/injection, schedule: Q01DX009 (ip), vehicle: saline with Tween-80 93 % of control | [1] 93 % of control | [2] 89 % of control | [3] 100 % of control

NCC(OCCCc1ccccc1)C(Cl)(Cl)Cl (stereo not drawn)
inactive: dose: 12.5 mg/kg/injection, schedule: Q04DX003 (ip), vehicle: saline with Tween-80 105 % of control | [1] 105 % of control | dose: 25.0 mg/kg/injection, schedule: Q04DX003 (ip), vehicle: saline with Tween-80 105 % of control | [2] 113 % of control | dose: 50.0 mg/kg/injection, schedule: Q04DX003 (ip), vehicle: saline with Tween-80 100 % of control

CCCC[n+]1ccccc1Cc1ccccc1
inactive: dose: 6.25 mg/kg/injection, schedule: Q04DX003 (ip), vehicle: saline 102 % of control | dose: 12.5 mg/kg/injection, schedule: Q04DX003 (ip), vehicle: saline 97 % of control

O=c1cc(COc2ccc(O)cc2)[nH]c(=O)[nH]1
inactive: [4] 101 % of control | [5] 104 % of control | [6] 89 % of control

NC(=N\C1=NCCN1)/C(N)=N/C1=NCCN1
inactive: dose: 100.0 mg/kg/injection, schedule: Q04DX002 (ip), vehicle: gum acacia 89 % of control | dose: 200.0 mg/kg/injection, schedule: Q04DX002 (ip), vehicle: gum acacia 100 % of control | dose: 400.0 mg/kg/injection, schedule: Q04DX002 (ip), vehicle: gum acacia 97 % of control

CC(C(=O)c1ccccc1)C(Cl)c1ccccc1 (stereo not drawn)
inactive: [7] 102 % of control | [8] 104 % of control | [3] 106 % of control | [9] 107 % of control | [10] 102 % of control | [11] 104 % of control

Cc1cccc(N2CCC3(CC2)C(=O)NC(=S)NC3=O)c1
inactive: [12] 104 % of control | [13] 94 % of control | [14] 98 % of control

COC1CC(OS(=O)(=O)c2ccc(C)cc2)C(OS(=O)(=O)c2ccc(C)cc2)C(C)O1 (stereo not drawn)
inactive: [12] 100 % of control | [13] 98 % of control | [14] 98 % of control

CC1(C)CC(OP(=O)(OC2CC(C)(C)N(O)C(C)(C)C2)c2ccccc2)CC(C)(C)N1O
inactive: dose: 100.0 mg/kg/injection, schedule: Q01DX001 (ip), vehicle: water 91 % of control | dose: 200.0 mg/kg/injection, schedule: Q01DX001 (ip), vehicle: water 106 % of control | dose: 400.0 mg/kg/injection, schedule: Q01DX001 (ip), vehicle: water 89 % of control

CC([NH-])C[NH-].[Cl][Pd][Cl] (stereo not drawn)
inactive: dose: 6.25 mg/kg/injection, schedule: Q04DX002 (ip), vehicle: Klucel (hydroxypropylcellulose) (HPC) 93 % of control | dose: 12.5 mg/kg/injection, schedule: Q04DX002 (ip), vehicle: Klucel (hydroxypropylcellulose) (HPC) 102 % of control and 93 % of control | dose: 12.5 mg/kg/injection, schedule: Q04DX003 (ip), vehicle: Klucel (hydroxypropylcellulose) (HPC) 96 % of control | dose: 25.0 mg/kg/injection, schedule: Q04DX002 (ip), vehicle: Klucel (hydroxypropylcellulose) (HPC) 90 % of control | dose: 25.0 mg/kg/injection, schedule: Q04DX003 (ip), vehicle: Klucel (hydroxypropylcellulose) (HPC) 94 % of control | dose: 50.0 mg/kg/injection, schedule: Q04DX002 (ip), vehicle: Klucel (hydroxypropylcellulose) (HPC) 90 % of control | dose: 50.0 mg/kg/injection, schedule: Q04DX003 (ip), vehicle: Klucel (hydroxypropylcellulose) (HPC) 91 % of control

N#CCC(C#N)N1CCCCC1 (stereo not drawn)
inactive: dose: 0.39 mg/kg/injection, schedule: Q01DX009 (ip), vehicle: other 100 % of control | dose: 0.78 mg/kg/injection, schedule: Q01DX009 (ip), vehicle: other 96 % of control | dose: 1.56 mg/kg/injection, schedule: Q01DX009 (ip), vehicle: other 94 % of control | dose: 3.12 mg/kg/injection, schedule: Q04DX003 (ip), vehicle: other 94 % of control | dose: 6.25 mg/kg/injection, schedule: Q04DX003 (ip), vehicle: other 100 % of control | dose: 12.5 mg/kg/injection, schedule: Q01DX001 (ip), vehicle: other 103 % of control | dose: 12.5 mg/kg/injection, schedule: Q04DX003 (ip), vehicle: other 100 % of control

C/C(=N\N=C(/C)c1cccc([N+](=O)[O-])c1)c1cccc([N+](=O)[O-])c1
inactive: dose: 100.0 mg/kg/injection, schedule: Q01DX001 (ip), vehicle: other 100 % of control | dose: 200.0 mg/kg/injection, schedule: Q01DX001 (ip), vehicle: other 100 % of control | dose: 400.0 mg/kg/injection, schedule: Q01DX001 (ip), vehicle: other 97 % of control

O=C(Nc1ccc(Cl)cc1C(F)(F)F)OCCOc1ccc([N+](=O)[O-])cc1
inactive: [7] 91 % of control | [3] 94 % of control | [10] 95 % of control

Nc1nc(N)c2cc(N(CCO)CCO)ccc2n1
inactive: dose: 50.0 mg/kg/injection, schedule: Q01DX001 (ip), vehicle: saline 101 % of control | [12] 95 % of control | [13] 95 % of control

COC(=N)Cc1ccc(OC)c(OC)c1
inactive: [7] 94 % of control | [3] 89 % of control | [10] 92 % of control

O=C(O)CCCN1C(=O)C2C3CCC(C3)C2C1=O (stereo not drawn)
inactive: [8] 103 % of control | [9] 98 % of control | [11] 107 % of control

O=C(C=C(C(F)(F)F)C(F)(F)F)c1ccccc1
inactive: [12] 100 % of control | [15] 91 % of control | [13] 94 % of control | [16] 100 % of control | [14] 109 % of control

O=C1NC2(CCCCC2)NC12CCCCC2
inactive: dose: 25.0 mg/kg/injection, schedule: Q01DX009 (ip), vehicle: saline 118 % of control | dose: 50.0 mg/kg/injection, schedule: Q01DX009 (ip), vehicle: saline 110 % of control | [15] 106 % of control

COc1ccc(C(=O)C2=CC(=O)C(=O)C2)cc1OC
inactive: [12] 98 % of control | [13] 98 % of control | [14] 94 % of control

Cc1nc2ccccc2c(=O)n1-c1ccccc1Cl
inactive: dose: 100.0 mg/kg/injection, schedule: Q01DX001 (ip), vehicle: saline with Tween-80 113 % of control | dose: 200.0 mg/kg/injection, schedule: Q01DX001 (ip), vehicle: saline with Tween-80 108 % of control | dose: 400.0 mg/kg/injection, schedule: Q01DX001 (ip), vehicle: saline with Tween-80 106 % of control

O=C1CC(c2cccc(S(=O)(=O)F)c2)=NN1c1ccc([N+](=O)[O-])cn1
inactive: dose: 100.0 mg/kg/injection, schedule: Q04DX003 (ip), vehicle: Klucel (hydroxypropylcellulose) (HPC) 102 % of control | dose: 200.0 mg/kg/injection, schedule: Q04DX003 (ip), vehicle: Klucel (hydroxypropylcellulose) (HPC) 105 % of control | dose: 400.0 mg/kg/injection, schedule: Q04DX003 (ip), vehicle: Klucel (hydroxypropylcellulose) (HPC) 91 % of control

CN(C)S(=O)(=O)c1ccc(NC(=O)OC2CCCCCC2)cc1
inactive: [12] 91 % of control | [13] 94 % of control | [14] 91 % of control

CCOC(=O)c1ccccc1C(=O)c1ccccc1
inactive: dose: 100.0 mg/kg/injection, schedule: Q04DX002 (ip), vehicle: Klucel (hydroxypropylcellulose) (HPC) 118 % of control | dose: 200.0 mg/kg/injection, schedule: Q04DX002 (ip), vehicle: Klucel (hydroxypropylcellulose) (HPC) 100 % of control | dose: 400.0 mg/kg/injection, schedule: Q04DX002 (ip), vehicle: Klucel (hydroxypropylcellulose) (HPC) 95 % of control

O=C(O)C1(C(=O)O)CCOCC1
inactive: dose: 50.0 mg/kg/injection, schedule: Q04DX003 (ip), vehicle: saline 93 % of control | [15] 104 % of control | [4] 98 % of control | [16] 102 % of control | [5] 104 % of control | [17] 96 % of control | [6] 103 % of control

O=C1C(Cl)=C(NCCCCCCNC2=C(Cl)C(=O)c3ccccc3C2=O)C(=O)c2ccccc21
inactive: [12] 106 % of control

O=[P+](O)C(O)c1ccccc1 (stereo not drawn)
inactive: [15] 95 % of control | [16] 95 % of control | [17] 95 % of control

O=C(COc1ccc(Br)cc1Br)OCCBr
inactive: [12] 97 % of control | [13] 105 % of control | [14] 100 % of control
